Assay results taken from patent US20100184807A1, “Methods to inhibit tumor cell growth by using proton pump inhibitors” (Bio-Quant, Inc., priority 2008, published 2010).

Tested on: G401 rhabdoid (kidney) cancer cells
Assay: Xenograft nude mouse model, G401
Assay type: in vivo
Conditions: nude mice, 100 mg/kg in PEG300
Experimental: JR (rhabdomyosarcoma), HepG2 (liver carcinoma), SR Liquid Leukemia (leukemia), RSI 184 B Lymphoma (lymphoma), and G401 rhabdoid (kidney) cancer cells for use in a xenograft mouse model were collected from JR, HepG2, SR Liquid Leukemia, RS1184 B Lymphoma, and G401 rhabdoid tumor cell lines and injected at 5×10^6 cells per nude mouse in a volume of 100 μl subcutaneously. The animals were examined three times weekly to determine the progression of the tumors and determine body weight. Dosing started when tumors reached the ˜75-150 mm^3 size. Animals were randomized and distributed in groups in such a way that mean tumor weights in all groups were within 15% of the mean tumor weight in Group 1 (Control—vehicle group). Upon reaching the ˜75-150 mm^3 target size an effective amount of lansoprazole was administered to the mice in a suspension of PEG300 at a concentration of 100 mg/kg.

## Cc1c(OCC(F)(F)F)ccnc1C[S+]([O-])c1nc2ccccc2[nH]1 (stereo not shown) [lansoprazole]
  treating tumor cells derived from tumor cell line: especially effective
